Reference: patent US4166911A, “Pyridazinyl-ergoline compounds having neuroleptic activity” (Farmitalia Carlo Erba S.p.A., priority 1977, dated 1979)

Tested on: aggregated mice
Assay: not given
Conditions: result in words, literature; cited from earlier work

| Compound | reduction of amphetamine toxicity in aggregated mice |
| --- | --- |
| CN(C)CCCN1c2ccccc2Sc2ccc(Cl)cc21 [chlorpromazine] | clearly reduce the amphetamine toxicity in aggregated mice |

Tested on: aggregated mice
Assay: protection of aggregated mice from amphetamine toxicity (death rate after 24 hours)
Conditions: Mus musculus, ip

| Compound | ED50 [mg/kg] |
| --- | --- |
| COC12C[C@@H](CNc3ccc(Cl)nn3)CN(C)[C@@H]1Cc1cn(C)c3cccc2c13 (stereo partly drawn) [355/902, 10-Methoxy-8β-(6'-chloro-3'-pyridazinylaminomethyl)-1,6-dimethyl-ergoline] | 16.4 |
| COc1ccc(NC[C@H]2CN(C)[C@@H]3Cc4cn(C)c5cccc(c45)C3(OC)C2)nn1 (stereo partly drawn) [/903, 10-Methoxy-8β-(6'-methoxy-3'-pyridazinylaminomethyl)-1,6-dimethylergoline] | 30 |
| COC12C[C@@H](CNc3cccnn3)CN(C)[C@@H]1Cc1cn(C)c3cccc2c13 (stereo partly drawn) [/904, 10-Methoxy-8β-(3'-pyridazinylaminomethyl)-1,6-dimethylergoline] | 30 |
| COC12C[C@@H](CSc3ccc(O)nn3)CN(C)[C@@H]1Cc1cn(C)c3cccc2c13 (stereo partly drawn) [/914, 10-Methoxy-1,6-dimethyl-8β-(6'-hydroxy-3'-pyridazinylmercaptomethyl)ergoline] | 16.7 |
| COC12C[C@@H](CSc3cccnn3)CN(C)[C@@H]1Cc1cn(C)c3cccc2c13 (stereo partly drawn) [/927, 10-Methoxy-1,6-dimethyl-8β-(3'-pyridazinylmercaptomethyl)ergoline] | 30 |
